Structures are written as SMILES.

One may read the logP as the decadic logarithm of the partition coefficient of the neutral form, usually between octanol and water.

The nature of the data set: method code SF, from DOI: 10.1016/0223-5234(96)88223-7.
With `Cc1ccc(-c2nc3ccc([N+](=O)[O-])cc3[nH]2)c(C)c1`, the logP is 4.1.

`CCc1ccc(-c2nc3ncccc3[nH]2)cc1` registered a logP of 3.42.

Regarding `Nc1ccc(Cc2nc3ccc(Cl)cc3[nH]2)cc1`, the logP is 3.2.

In turn, `Cc1ccccc1-c1nc2ccc([N+](=O)[O-])cc2[nH]1` came in with a logP of 3.42.

In the case of `Clc1ccc2nc(Cc3ccc(Br)cc3)[nH]c2c1`, the logP turned out to be 5.38.

The compound `COc1ccccc1-c1nc2ccccc2[nH]1` had a logP of 3.02.

Consider `COc1ccc(-c2nc3ccc(C)cc3[nH]2)c(OC)c1`, for which the logP came out at 3.78.

`Clc1ccc(Cc2nc3ccc(Cl)cc3[nH]2)cc1` registered a logP of 5.18.

Compound `COc1ccc(Cc2nc3ccc([N+](=O)[O-])cc3[nH]2)cc1` displayed a logP of 3.48.

Compound `Cc1ccc(Cc2nc3ccc(Cl)cc3[nH]2)cc1` registered a logP of 5.21.

In the case of `Cc1ccc(-c2nc3ncccc3[nH]2)cc1`, the logP came to 3.02.

The compound `Clc1ccc(-c2nc3ncccc3[nH]2)cc1` showed a logP of 2.95. This logP and that of the compound before are within 0.2 log units of each other.

In turn, `Fc1ccc(-c2nc3ncccc3[nH]2)cc1` had a lipophilicity (logP) of 2.52.

`Cc1ccc(-c2nc3ccccc3[nH]2)cc1` yielded a lipophilicity (logP) of 3.67.

Take `CC(C)(C)c1ccc(-c2nc3ncccc3[nH]2)cc1`: the logP stood at 4.82.

These data come from the SangsterLogP compilation.
